Measured values reported in patent publication US10494414B2, “Immunoglobulin G-binding peptide” (KANEKA CORPORATION, priority 2014, dated 2019).

How the values were obtained:
Fab region = details: Non-patent Documents 1 and 2; cited from earlier work
[1] = system: IgG-Fab of anti-TNFα monoclonal antibody; experiment: Binding response versus peptide concentration on immobilized IgG-Fab (Biacore); details: about 10000 RU immobilized, peptide 25-200 nM, response 1 minute after addition, SEQ ID NO: 14 specifically 0.4 to 0.6
[2] = biological target: T1, IgG-Fc of anti-TNFα monoclonal antibody (Homo sapiens, UniProt P01857); experiment: Binding response versus peptide concentration on immobilized IgG-Fc (Biacore); details: about 10000 RU immobilized, peptide 25-200 nM, response 1 minute after addition, SEQ ID NO: 14 specifically 0.4 to 0.6
T1 construct: a Fc region of a heavy chain is composed of CH2 and CH3; purchased Mitsubishi Tanabe Pharma Corporation Remicade

Anti-RSV antibody - Fc = biological target: T2, Anti-RSV antibody - Fc (Homo sapiens, UniProt P01857); experiment: Biacore surface plasmon resonance affinity for IgG-Fc of anti-RSV monoclonal antibody; type: binding
T2 construct: a Fc region of a heavy chain is composed of CH2 and CH3; purchased CHUGAI PHARMACEUTICAL CO., LTD; Synagis
Description: (§1) A humanized monoclonal IgG product as a raw material was fragmented into a Fab fragment and a Fc fragment using papain, and only the Fab fragment was separated and purified. Hereinafter, a method for producing IgG-Fc/IgG-Fab derived from anti-RSV monoclonal antibody (generic name: Palivizumab) is described. The term “RSV” is an abbreviation of RS virus. In the present disclosure, when other IgG-Fc and IgG-Fab were used for evaluation, the fragments were basically prepared in a similar method.
(§2) Specifically, a humanized monoclonal IgG product (“Synagis” manufactured by CHUGAI PHARMACEUTICAL CO., LTD., in the case of anti-RS virus monoclonal agent) was dissolved in a buffer for papain treatment (0.1M AcOH—AcONa, 2 mM EDTA, 1 mM cysteine, pH 5.5), and agarose immobilized by papain (“Papain Agarose from papaya latex” manufactured by SIGMA) was added thereto. The mixture was incubated with stirring by a rotator at 37° C. for about 8 hours. The IgG-Fc was purified from the reaction mixture which contained both of a Fab fragment and a Fc fragment and which was separated from the agarose immobilized by papain by recovering the IgG-Fc as a flow-through fraction of an affinity chromatography using Kappa Select column (manufactured by GE Healthcare Bioscience). The IgG-Fab was purified by recovering the IgG-Fab as a flow-through fraction in an affinity chromatography using KanCapA column (manufactured by GE Healthcare Bioscience). The obtained crude IgG-Fc solution was subjected to purification by gel filtration chromatography using Superdex 75 10/300 GL column to obtain IgG-Fc solution. In the chromatography, a standard buffer was used for equilibration and separation. The obtained crude IgG-Fab solution was similarly subjected to purification. […]
(§3) The affinity of the peptide obtained in the above-described Example 1(2) for the Fc region and Fab region of anti-RSV monoclonal antibody was evaluated using a biosensor Biacore3000 (manufactured by GE Healthcare Bioscience) utilizing surface plasmon resonance. […]

Anti-TNFα antibody - Fab = experiment: Biacore surface plasmon resonance affinity for IgG-Fab of anti-TNFα monoclonal antibody; type: binding
Method: (§4) The affinity of the peptide obtained in the above-described Example 1(2) for the Fc region and Fab region of anti-RSV monoclonal antibody was evaluated using a biosensor Biacore3000 (manufactured by GE Healthcare Bioscience) utilizing surface plasmon resonance. In the present Example, the IgG-Fc or IgG-Fab obtained in the above-described Example 2(1) was immobilized on a sensor tip, and the peptide solution was flowed across the sensor tip to detect the interaction between the two. The IgG-Fab or IgG-Fc was immobilized on a sensor tip CM5 by amine coupling method using N-hydroxysuccinimide (NHS) and N-ethyl-N′-(3-dimethylaminopropyl)carbodiimide hydrochloride (EDC), and ethanolamine was used for blocking. All of the sensor tip and reagents for immobilization was manufactured by GE Healthcare Bioscience. The IgG-Fab solution was diluted to about 10 times using a buffer for immobilization (10 mM AcOH—AcONa, pH 4.5), and the IgG-Fab was immobilized on the sensor tip in accordance with the protocol attached to the Biacore 3000. […]
(§5) Also, the affinity of the peptide according to the present invention (SEQ ID NO: 2) for IgG-Fab prepared from anti-EGFR monoclonal antibody (“Erbitux” sold by Bristol-Myers Squibb) and anti-TNFα monoclonal antibody (“Remicade” sold by Mitsubishi Tanabe Pharma Corporation) was evaluated. The IgG-Fab was prepared in a similar manner to the above-described (1), and the affinity was basically evaluated in a similar manner to the above-described (2). […]
Each peptide was prepared in a similar method to the above-described Example 1 except that the combination of single-stranded oligo DNAs shown in Table 3 was used for preparing expression plasmid. […] As representative data, the affinity for IgG-Fab of anti-TNFα monoclonal antibody was evaluated by a similar manner to the above-described Example 2. […] For example, the value in the left graph is logarithm (Log 10) of a value calculated by dividing an affinity constant (KA) of each peptide by an affinity constant of SEQ ID NO: 2. […]

Anti-EGFR antibody - Fab = experiment: Biacore surface plasmon resonance affinity for IgG-Fab of anti-EGFR monoclonal antibody; type: binding
Method: as §4, with “3000. In addition, a reference cell as negative control was also prepared by activating another flow cell on the tip with EDC/NHS and then immobilizing ethanolamine only. Peptide solutions having concentrations of 16 nM, 64 nM or 256 nM were prepared using a running buffer (20 mM NaH2PO4—Na2HPO4, 150 mM NaCl, 0.005% P-20, pH 7.4). Each peptide solution was added to the sensor tip in a flow rate of 40 μL/min for 1 minute. Bonding response curves at the time of addition (association phase, 1 minute) and after the addition (dissociation phase, 1 minute) were sequentially obtained at a measurement temperature of 25° C.” for “3000.”
as §5

Anti-RSV antibody - Fab = experiment: Biacore surface plasmon resonance affinity for IgG-Fab of anti-RSV monoclonal antibody; type: binding, human
Description: as §1, §2, §3

Fab fragment = experiment: Association constant of wild Protein G to Fab fragment in Biacore system; type: binding; details: 25° C., pH 7.4
Description: For example, as a binding parameter, association constant (KA) and dissociation constant (KD) can be used ([NT] et al., “Real-Time Analysis Experimental Method for Interaction Between Biological Substances”, Springer-Verlag Tokyo, 1998, p. 41). An association constant between the present invention peptide and a Fc fragment or a Fab fragment can be measured by immobilizing a Fc fragment or a Fab fragment on a sensor tip and adding the present invention peptide into a flow channel under a condition of the temperature of 25° C. and pH 7.4 in Biacore system. In an experiment utilizing Biacore system, the order of a parameter may be largely changed depending on an experimental condition, an analysis method and/or the kind of used original IgG. Under such a circumstance, when an evaluation is also conducted by using a wild Protein G in the same experimental condition and analysis method, it becomes standard whether the measured association constant is larger or not in comparison with the association constant of wild Protein G to a Fab region. The performance of a conventional wild Protein G is not sufficient as a peptide which binds to both of a Fc region and a Fab region of an immunoglobulin G, since the binding force thereof to a Fab region is not sufficient. […] A wild Protein G is easily available as a commercial reagent for study. […]

[3] = Anti-RSV antibody - Fc immobilized, 25° C., pH 7.4, 1:1 binding model
[4] = Anti-RSV antibody - Fab immobilized, 25° C., pH 7.4, 1:1 binding model

Substance: Protein G: IgG-binding cell wall protein produced by Streptococcus sp. classified into Group G
- association constant (KA) to a Fab region, times less than that to a Fc region (Fab region): 10 times

Substance: SEQ ID NO: 14: IgG-binding peptide; difference from SEQ ID NO: 2: Xaa21 = Asp, Xaa28 = Lys (TTYKLILNGKTLTGYTTAIADDAATAEKVLKQFANDNGIDGEWTYDDATKTFTVTE; Immunoglobulin-binding peptide)
- inclination of approximate curve of binding response versus peptide concentration [1]: about 0.5
- inclination of approximate curve of binding response versus peptide concentration [2]: about 0.5

Substance: SEQ ID NO: 2: IgG-binding peptide (SpG mutant) having the amino acid sequence of SEQ ID NO: 2, with N-terminal Gly-Pro-Leu-Gly-Ser from the vector (TTYKLILNGKTLTGYTTAIAADAATAEIVLKQFANDNGIDGEWTYDDATKTFTVTE; N-terminal vector-derived residues; Immunoglobulin-binding peptide)
- koff (Anti-RSV antibody - Fc; [3]): 0.028 s⁻¹
- kon (Anti-RSV antibody - Fc; [3]): 97000 s/M
- KA (Anti-RSV antibody - Fc; Anti-RSV antibody - Fc, KA=kon/koff): 3.5e+06 M⁻¹
- KA (Anti-TNFα antibody - Fab; KA=kon/koff): 4e+07 M⁻¹
- koff (Anti-TNFα antibody - Fab; peptide 25, 100, 400 nM): 0.01 s⁻¹
- kon (Anti-TNFα antibody - Fab; peptide 25, 100, 400 nM): 413000 s/M
- KA (Anti-EGFR antibody - Fab; KA=kon/koff): 6.5e+07 M⁻¹
- koff (Anti-EGFR antibody - Fab; peptide 25, 100, 400 nM): 0.039 s⁻¹
- kon (Anti-EGFR antibody - Fab; peptide 25, 100, 400 nM): 252000 s/M
- koff (Anti-RSV antibody - Fab; [4]): 0.003 s⁻¹
- kon (Anti-RSV antibody - Fab; [4]): 66000 s/M
- KA (Anti-RSV antibody - Fab; Anti-RSV antibody - Fab, KA=kon/koff): 2e+07 M⁻¹

Substance: wild Protein G: conventional wild Protein G, available as a commercial reagent for study
- association constant KA to a Fab fragment, as an order (Fab fragment): about 10^5
